Data published in US7538129B2, “Diazonamide A analog” (Board of Regents, The University of Texas System, priority 2005, dated 2009).
“Also recorded” adds a separate entry of the source.

Experiments:
Format in all cases: in vivo, mice
[1] = system: neutrophils (GR1+ cells) in bone marrow; test: neutrophil counts in bone marrow; details: for neutrophil counts in bone marrow: 5 mg/kg; for neutrophil counts in bone marrow (number of GR1+ cells in one femu): 20 mg/kg, FIG. 5A
Source text: In addition to measuring the affect on tumors, the effect of paclitaxel and Compound J on neutrophils in […] and blood were obtained. […] The data are provided as the number of GR1+ cells in one femu.
(§1) The details of the protocol for Examples 19 and 20 are as follows: […]

HCT116 xenografts = test: growth inhibition of HCT116 xenografts; details: for #Tumor Free (day) / % Max T/C / Log10 Tumor Cell Kill: HCT116 (colon)
Method: Details of the preparation of murine models containing xenografts of HCT116 cells or PC-3 cells are described in the section following these examples. After the tumors were grown, therapy utilizing Compound J or paclitaxel was initiated. […] In FIG. 4A, the *'s represent control mice, the squares represent 5 mg/kg Compound J; the diamonds represent 20 mg/kg Compound J; and the slanted line represents 20 mg/kg paclitaxel.
The details of the protocol for Examples 19 and 20 are as follows:
• PC3 prostrate tumor cells and HCT116 colon tumor cells (acquired from the tumor repository Division of Cancer Treatment and Diagnosis (DCTD) of the NCI • Complete RPMI Media • RPMI (Cat# 11875-085, Invitrogen) • 10% Heat-inactivated (30′ 56° C.) Fetal Bovine Serum (Cat# 100-106, Gemini Bio-Products • 2 mM L-glutamine (Cat# 25030-081, Invitrogen) • 0.1 mM MEM Non-Essential Amino Acids Solution (Cat#11140-050, Invitrogen) • 10 U/ml Penicillin/10 μg/ml Streptomycin (Cat#15140-122, Invitrogen) • 1 mM Sodium Pyruvate (Cat#l 1360-070) • Trypsin-EDTA (Cat#25300-054, Invitrogen) • Ca^2+/Mg^2+-free Phosphate Buffered Saline, 5% dextrose in water • Cell Culture Dish 150 mm×25 mm (Cat# 430599, Coming, Inc.) • 10 and 25 ml pipets, standard pipet-aid, p200 and p1000 pipette tips and standard pipetmen • Athymic NCr-nu/nu nude mice at 6-12 weeks of age, either sex (Strain code: 01B74, NCI Frederick Animal Production Program—suppliers include Charles River Labs and Taconic Farms). Female mice of approximately 7 weeks of age were utilized for existing experiments. • Standard 1 cc tuberculin syringe, 30G½ and 25G⅝ needles (Becton Dickinson) • Falcon 5 ml tubes (Cat#352054) • 50 and 15 ml disposable plastic conical tubes (Falcon or similar vendor) • Trypan Blue Solution (0.4%) (Cat#T8154, Sigma) • Hausser phase contrast hemacytometer (Cat# 02-671-54, Fisher) • Ice bucket • Balance for weighing mice (accurate to 0.2 g) • Vernier calipers • Vivarium facility free from known pathogens (nude mice should be housed in isolation from conventional mice if possible—separate rooms or micro-isolator cages equipped with individual air flow; all animal housing, bedding, water should be autoclaved prior to use; standard irradiated mouse chow should be used; animals should be changed out of cages within laminar flow hood; investigators handling mice should be suitably garbed—disposable gown, bonnet, booties, gloves, mask) • AB-5 (Compound J) compound • Ethyl alcohol, 200 proof (Aaper, MFD 041205) • Cremaphor (Cat# C5135, Sigma) • Paclitaxel (Cat#ANP0010, Polymed Therapeutics) Procedure: • 1) Rapidly thaw PC3 or HCT116 cells (if necessary) in 37° C. water bath. Transfer contents to 9ml complete RPMI media. Spin 5′ at 1200 rpm (240 Xg). Discard media and resuspend pellet in 8 ml complete RPMI media. Plate in 100 mm×25 mm cell culture dish in 5% CO2, 37° C. humidified incubator. • 2) Allow to grow for 5-10 days, splitting (aspirate media, wash with 3-5 ml PBS, add 1 ml trypsin-EDTA, incubate 3-5′ at 37° C., add media to desired volume and transfer to multiple plates) 1:8 to 1:10 every 3-4 days as necessary to allow cells to enter phase of logarithmic growth. • 3) When cells are growing well, begin to expand to 150 mm×25 mm dishes. We use 20 ml of media in a 150 mm dish and use 2 ml of trypsin for splitting. When nearly confluent, there should be 2×10^7 cells/150 mm dish. • 4) Plan ahead to time arrival of nu/nu mice such that they can acclimate to animal facility for 1 week prior to injection of tumor cells. […] Plan to inject 10 million cells/mouse and allow for loss of cells/volume during injection process. That is, if 30 mice are to be injected, plan to harvest cells sufficient for at least 35 injections—35×10 million cells=3.5×10^8 cells. In the existing HCT116 experiment, 7.5×10^6 cells were injected per mouse. Five mice per group were utilized for AB-5 treatment and four mice per group were utilized for the control and paclitaxel treatments. […]

[2] = system: neutrophils in peripheral blood; test: neutrophil count in peripheral blood; details: for neutrophil count in peripheral blood, ANC (cell/ml): FIG. 5B
Source text: as §1

Compound: CC(C)[C@H](O)C(=O)N[C@H]1Cc2ccc3c(c2)[C@]24C5=C(N=C(O5)[C@H](C(C)C)NC1=O)c1ncc(o1)-c1c[nH]c5cccc(c15)-c1cccc2c1NC4O3 (stereo in doubt) [Compound J]
- neutrophil counts in bone marrow [1]: no effect
- neutrophil counts in bone marrow (number of GR1+ cells in one femu) [1]: no effect
- neutrophil proliferation or cell counts in vivo ([1]; FIG. 5A legend): no effect
- inhibition of growth of HCT116 xenografts (HCT116 xenografts; FIG. 4A, 20 mg/kg IV): comparable to paclitaxel; also recorded: slows tumor growth in a manner similar to paclitaxel
- #Tumor Free (day) (HCT116 xenografts; 5 mg/kg, IP): 0/5
- % Max T/C (HCT116 xenografts; 5 mg/kg, IP): 41.9%
- Log10 Tumor Cell Kill (HCT116 xenografts; 5 mg/kg, IP): 0.37
- #Tumor Free (day) (HCT116 xenografts; 5 mg/kg, IV): 0/5
- % Max T/C (HCT116 xenografts; 5 mg/kg, IV): 26.5%
- Log10 Tumor Cell Kill (HCT116 xenografts; 5 mg/kg, IV): 0.54
- #Tumor Free (day) (HCT116 xenografts; 20 mg/kg, IP): 0/5
- % Max T/C (HCT116 xenografts; 20 mg/kg, IP): 9.3%
- Log10 Tumor Cell Kill (HCT116 xenografts; 20 mg/kg, IP): 1.0
- % Max T/C (HCT116 xenografts; 20 mg/kg, IV): 0.2%
- Log10 Tumor Cell Kill (HCT116 xenografts; 20 mg/kg, IV): 1.8
- animals free of tumors (HCT116 xenografts; free of tumors for over five months): four of 10
- weight loss (HCT116 xenografts; tumor-free animals, over five months): no weight loss
- neutrophil count in peripheral blood, ANC (cell/ml) ([2]; 5 mg/kg): no effect; also recorded: not significantly affected
- neutrophil count in peripheral blood, ANC (cell/ml) ([2]; 20 mg/kg): no effect; also recorded: not significantly affected
- neutrophil proliferation or cell counts in vivo ([2]; FIG. 5B legend): no effect

Compound: CC(=O)O[C@H]1C(=O)[C@@]2(C)[C@H]([C@H](OC(=O)c3ccccc3)[C@]3(O)C[C@H](OC(=O)[C@H](O)[C@@H](NC(=O)c4ccccc4)c4ccccc4)C(C)=C1C3(C)C)[C@]1(OC(C)=O)CO[C@@H]1C[C@@H]2O [paclitaxel, reference compound]
- neutrophil counts in bone marrow [1]: reduction of neutrophil counts
- neutrophil counts in bone marrow (number of GR1+ cells in one femu) [1]: reduction of neutrophil counts; also recorded: significantly lowered
- % Max T/C (HCT116 xenografts; 20 mg/kg, IV): 0.2%
- Log10 Tumor Cell Kill (HCT116 xenografts; 20 mg/kg, IV): 3.2
- neutrophil count in peripheral blood, ANC (cell/ml) ([2]; 5 mg/kg): reduction of neutrophil counts; also recorded: greatly lowered
- neutrophil count in peripheral blood, ANC (cell/ml) ([2]; 20 mg/kg): reduction of neutrophil counts; also recorded: greatly lowered
